Measurements published in patent publication US11066447B2, “Aureobasidium derivatives and methods of synthesis” (AureoGen Biosciences, Inc., priority 2016, dated 2021).
Converted amounts (≈) assume the structure as drawn. Like-named read-outs stand apart in the source and are kept apart here. Numbered stars: 1 amine (or outer) side, 2 acyl side, 3 side chain; on linkers, the order of the positions; unused ones are H or OH. Square brackets hold non-standard residues; d marks the D form. Peptide text beside a SMILES is read from it. X35 = CN([C@@H](Cc1cccc(-c2ccc(-n3c4ccccc4c4ccccc43)cc2)c1)C(=O)[*:2])[*:1]; X28 = CN([C@@H](Cc1cccc(-c2ccc(C(F)(F)F)cc2)c1)C(=O)[*:2])[*:1]; X31 = CN([C@@H](Cc1cccc(-c2cccc(C(F)(F)F)c2)c1)C(=O)[*:2])[*:1]; X30 = CN([C@@H](Cc1cccc(-c2ccc(Cl)c(Cl)c2)c1)C(=O)[*:2])[*:1]; X33 = CN([C@@H](Cc1cccc(-c2ccc3ccccc3c2)c1)C(=O)[*:2])[*:1]; X32 = CN([C@@H](Cc1cccc(-c2cccc(F)c2)c1)C(=O)[*:2])[*:1]; Hmp(2R,3S) = CC[C@H](C)[C@@H](O)C(=O)O; NMeVal(β-OH) = CN[C@H](C(=O)O)C(C)(C)O; NMeV = CN[C@H](C(=O)O)C(C)C

Key:
[1] = system: C. albicans MMX 2000 ATCC 10231; test: MIC assay (CLSI microdilution); assay type: cell-based; settings: Candida albicans, ATCC10231, RPMI plus 0.002% Tween-80; read-out: MIC
Method: (§1) Aureobasidin and test compounds (i.e., AbA derivatives of the present invention) were received from Kalexsyn, Inc. (Kalamazoo, Mich.) as powder and were stored at 4° C. until the day of assay. […] amphotericin was obtained from Sigma Aldrich and stored under like conditions. […] Ethanol (95%) was used as a solvent and diluent for all AbA compounds. Amphotericin B was tested from 0.06-64 μg/mL. Amphotericin B (Sigma Aldrich; St. Louis, Mo.; Cat No. A9528-100MG, Lot No. 120M4087) was dissolved and diluted with dimethylsulfoxide (DMSO; Sigma Aldrich; St. Louis, Mo.; Cat No. 472301 Lot No. SHBD2072V).
(§2) The solvents were added to the test agents and the stock solutions stood for approximately 1 hr at room temperature prior to use to auto sterilize. Stock solutions were prepared at 40× the desired top concentration in the test plate.
(§3) All of the test isolates were originally received from either the American Type Culture Collection (ATCC), clinical labs, or directly from Aureogen Biosciences. Organisms stored by Micromyx were cultured on agar medium appropriate to each organism. Colonies were picked by swab from the isolation plates and put into suspension in appropriate broth containing cryoprotectant. The suspensions were aliquoted into cryogenic vials and maintained at −80° C.
(§4) Prior to testing, Candida isolates were streaked from the frozen vials on Sabouraud dextrose agar. The yeast isolates were incubated for 48 hours at 35° C. before use. The fungal isolates were obtained from enumerated fungal stocks previously prepared at Micromyx and stored in phosphate buffered saline at 4° C.
(§5) Test Media. The medium employed for the MIC assay was RPMI-1640 medium from HyClone Laboratories (Logan, Utah; Lot No. AYB60287A). The medium was prepared according to Clinical and Laboratory Standards Institute (CLSI) guidelines (1, 2), and modified to include 0.002% Tween-80. Candida parapsilosis ATCC 22019 (MMX 2323) and Aspergillus fumigatus ATCC MYA-3626 (MMX 5280) were also tested without Tween-80 to provide data for the quality control of amphotericin B in accordance with CLSI (3) and to assess the effect of Tween-80 on the activity of the test agents.
(§6) Test Procedure. The MIC assay method followed the procedure described by CLSI (1, 2) and employed automated liquid handlers to conduct serial dilutions and liquid transfers. Automated liquid handlers included the Multidrop 384 (Labsystems, Helsinki, Finland), Biomek 2000 and Biomek FX (Beckman Coulter, Fullerton Calif.). The wells in columns 2-12 in standard 96-well microdilution plates (Costar 3795) were filled with 150 μl of the appropriate diluent (95% EtOH for investigational compounds, 100% DMSO for amphotericin B). These assay plates would become the ‘mother plates’ from which the assay ‘daughter plates’ would be prepared. The drugs (300 μL at 40× the desired top concentration in the test plates) were dispensed into the appropriate well in Column 1 of the mother plates. The Biomek 2000 was used to make two-fold serial dilutions through Column 11 in the “mother plate”. The wells of Column 12 contained no drug and served as the organism growth control wells.
(§7) The daughter plates were loaded with 185 μL per well on the Multidrop 384 with RPMI plus 0.002% Tween-80 or RPMI containing no Tween-80 for the testing of the two QC isolates. The daughter plates were prepared on the Biomek FX instrument which transferred 5 μL of drug solution from each well of a mother plate to each corresponding well of each daughter plate in a single step.
(§8) A standardized inoculum of each organism was prepared per CLSI methods (1, 2). For the Candida isolates, colonies were picked from the streak plate and a suspension was prepared in RPMI to equal a 0.5 McFarland standard. This suspension was diluted 1:100 in RPMI resulting in a final concentration of approximately 0.5-2.5×10^3 CFU/mL. […]

[2] = system: C. neoformans MMX 0634 ATCC 90112; test: MIC assay (CLSI microdilution); assay type: cell-based; settings: Cryptococcus neoformans, ATCC90112, RPMI plus 0.002% Tween-80; read-out: MIC
Method: as §1, §2, §3, §4, §5, §6, §7, §8

[3] = system: A. fumigatus MMX 6781 ATCC MYA-4609; test: MIC/MEC assay (CLSI microdilution); assay type: cell-based; settings: Aspergillus fumigatus; for MIC: 48 h, RPMI plus 0.002% Tween-80, read-out: MIC; for minimal effective concentration: RPMI plus 0.002% Tween-80, 48 hr
Method: as §1, §2, §3, §4, §5, §6, §7, §8

[4] = system: A. fumigatus MMX 6782 ATCC 13073; test: MIC/MEC assay (CLSI microdilution); assay type: cell-based; settings: Aspergillus fumigatus, ATCC13073, 48 h; for minimal effective concentration: RPMI plus 0.002% Tween-80, read-out: MEC; for MIC: RPMI plus 0.002% Tween-80, read-out: MIC
Method: as §1, §2, §3, §4, §5, §6, §7, §8

[5] = system: A. fumigatus MMX 5944; test: MIC/MEC assay (CLSI microdilution); assay type: cell-based; settings: Aspergillus fumigatus, MMX5944, 48 h; for minimal effective concentration: RPMI plus 0.002% Tween-80; for MIC: RPMI plus 0.002% Tween-80, read-out: MIC
Method: as §1, §2, §3, §4, §5, §6, §7, §8

[6] = system: A. flavus MMX 5948; test: MIC/MEC assay (CLSI microdilution); assay type: cell-based; settings: Aspergillus flavus, MMX5948, 48 h; for minimal effective concentration: RPMI plus 0.002% Tween-80; for MIC: RPMI plus 0.002% Tween-80, read-out: MIC
Method: as §1, §2, §3, §4, §5, §6, §7, §8

[7] = system: A. niger MMX 0624 ATCC 16888; test: MIC/MEC assay (CLSI microdilution); assay type: cell-based; settings: for minimal effective concentration: RPMI plus 0.002% Tween-80, read-out: MEC
Method: as §1, §2, §3, §4, §5, §6, §7, §8

[8] = system: C. parapsilosis MMX 2323 ATCC 22019; test: MIC assay (CLSI microdilution); assay type: cell-based, Candida parapsilosis; settings: read-out: MIC
Method: as §1, §2, §3, §4, §5, §6, §7, §8

[9] = system: A. fumigatus MMX 5280 ATCC MYA-3626; test: MIC/MEC assay (CLSI microdilution); assay type: cell-based, Aspergillus fumigatus; settings: Aspergillus fumigatus, 48 h
Method: as §1, §2, §3, §4, §5, §6, §7, §8

[10] = Aspergillus niger, ATCC16888, 48 h
[11] = Aspergillus niger, ATCC16888, 48 h, RPMI plus 0.002% Tween-80, read-out: MIC
[12] = ATCC22019, RPMI plus 0.002% Tween-80
[13] = RPMI plus 0.002% Tween-80, read-out: MEC
[14] = RPMI plus 0.002% Tween-80, read-out: MIC
[15] = Without Tween-80, read-out: MEC
[16] = Without Tween-80, read-out: MIC
[17] = RPMI plus 0.002% Tween-80, 48 hr

SMILES	MIC [1]	MIC [2]	MIC [3]	minimal effective concentration [3]	minimal effective concentration [4]	MIC [4]	minimal effective concentration [5]	MIC [5]	minimal effective concentration [6]	MIC [6]	minimal effective concentration [7, 10]	MIC [7, 11]	MIC [8, 12]	MIC ([8]; ATCC22019, Without Tween-80)	minimal effective concentration [9, 13]	MIC [9, 14]	minimal effective concentration [9, 15]	MIC [9, 16]	MEC [7, 17]	MIC [7, 17]
CC[C@H](C)[C@@H]1NC(=O)[C@@H]2CCCN2C(=O)[C@H](Cc2cccc(-c3ccc(Cl)c(Cl)c3)c2)N(C)C(=O)[C@H](Cc2ccccc2)NC(=O)[C@H](C(C)C)N(C)C(=O)[C@@H]([C@@H](C)CC)OC(=O)[C@H](C(C)(C)O)N(C)C(=O)[C@H](CC(C)C)NC(=O)[C@H](C(C)C)N(C)C1=O [Compound 2] (cyclo(F[X30]PI[NMeV]L[NMeVal(β-OH)][Hmp(2R,3S)][NMeV]))	0.12 mg/L	0.12 mg/L	> 64 mg/L	0.5 µg/mL	0.25 µg/mL	> 64 mg/L	0.5 µg/mL	> 64 mg/L	0.5 µg/mL	1 mg/L	0.5 µg/mL	0.5 mg/L	0.5 mg/L	2 mg/L (≈ 1.6 µM)	0.5 µg/mL	> 64 mg/L	8 µg/mL	> 64 mg/L	–	–
CC[C@H](C)[C@@H]1NC(=O)[C@@H]2CCCN2C(=O)[C@H](Cc2cccc(-c3ccc(C(F)(F)F)cc3)c2)N(C)C(=O)[C@H](Cc2ccccc2)NC(=O)[C@H](C(C)C)N(C)C(=O)[C@@H]([C@@H](C)CC)OC(=O)[C@H](C(C)(C)O)N(C)C(=O)[C@H](CC(C)C)NC(=O)[C@H](C(C)C)N(C)C1=O [Compound 3] (cyclo(F[X28]PI[NMeV]L[NMeVal(β-OH)][Hmp(2R,3S)][NMeV]))	0.12 mg/L	0.12 mg/L	> 64 mg/L	> 64 µg/mL	> 64 µg/mL	> 64 mg/L	> 64 µg/mL	> 64 mg/L	> 64 µg/mL	> 64 mg/L	–	–	0.5 mg/L	2 mg/L (≈ 1.61 µM)	> 64 µg/mL	> 64 mg/L	> 64 µg/mL	> 64 mg/L	1/1 μg/mL	1/1 μg/mL
CC[C@H](C)[C@@H]1NC(=O)[C@@H]2CCCN2C(=O)[C@H](Cc2cccc(-c3cccc(C(F)(F)F)c3)c2)N(C)C(=O)[C@H](Cc2ccccc2)NC(=O)[C@H](C(C)C)N(C)C(=O)[C@@H]([C@@H](C)CC)OC(=O)[C@H](C(C)(C)O)N(C)C(=O)[C@H](CC(C)C)NC(=O)[C@H](C(C)C)N(C)C1=O [Compound 4] (cyclo(F[X31]PI[NMeV]L[NMeVal(β-OH)][Hmp(2R,3S)][NMeV]))	0.12 mg/L	0.25 mg/L	> 64 mg/L	> 64 µg/mL	1 µg/mL	> 64 mg/L	1 µg/mL	> 64 mg/L	> 64 µg/mL	> 64 mg/L	0.5 µg/mL	0.5 mg/L	0.5 mg/L	2 mg/L (≈ 1.61 µM)	> 64 µg/mL	> 64 mg/L	> 64 µg/mL	> 64 mg/L	–	–
CC[C@H](C)[C@@H]1NC(=O)[C@@H]2CCCN2C(=O)[C@H](Cc2cccc(-c3ccc4ccccc4c3)c2)N(C)C(=O)[C@H](Cc2ccccc2)NC(=O)[C@H](C(C)C)N(C)C(=O)[C@@H]([C@@H](C)CC)OC(=O)[C@H](C(C)(C)O)N(C)C(=O)[C@H](CC(C)C)NC(=O)[C@H](C(C)C)N(C)C1=O [Compound 5] (cyclo(F[X33]PI[NMeV]L[NMeVal(β-OH)][Hmp(2R,3S)][NMeV]))	0.12 mg/L	0.12 mg/L	> 64 mg/L	0.5 µg/mL	0.5 µg/mL	> 64 mg/L	0.5 µg/mL	> 64 mg/L	0.5 µg/mL	1 mg/L	0.5 µg/mL	0.5 mg/L	0.5 mg/L	2 mg/L (≈ 1.63 µM)	0.5 µg/mL	> 64 mg/L	4 µg/mL	> 64 mg/L	–	–
CC[C@H](C)[C@@H]1NC(=O)[C@@H]2CCCN2C(=O)[C@H](Cc2cccc(-c3cccc(F)c3)c2)N(C)C(=O)[C@H](Cc2ccccc2)NC(=O)[C@H](C(C)C)N(C)C(=O)[C@@H]([C@@H](C)CC)OC(=O)[C@H](C(C)(C)O)N(C)C(=O)[C@H](CC(C)C)NC(=O)[C@H](C(C)C)N(C)C1=O [Compound 7] (cyclo(F[X32]PI[NMeV]L[NMeVal(β-OH)][Hmp(2R,3S)][NMeV]))	0.015 mg/L	0.12 mg/L	> 64 mg/L	1 µg/mL	0.5 µg/mL	> 64 mg/L	0.5 µg/mL	> 64 mg/L	> 64 µg/mL	> 64 mg/L	0.25 µg/mL	0.25 mg/L	0.12 mg/L	1 mg/L (≈ 0.836 µM)	2 µg/mL	> 64 mg/L	64 µg/mL	> 64 mg/L	–	–
CC[C@H](C)[C@@H]1NC(=O)[C@@H]2CCCN2C(=O)[C@H](Cc2cccc(-c3ccc(-n4c5ccccc5c5ccccc54)cc3)c2)N(C)C(=O)[C@H](Cc2ccccc2)NC(=O)[C@H](C(C)C)N(C)C(=O)[C@@H]([C@@H](C)CC)OC(=O)[C@H](C(C)(C)O)N(C)C(=O)[C@H](CC(C)C)NC(=O)[C@H](C(C)C)N(C)C1=O [Compound 8] (cyclo(F[X35]PI[NMeV]L[NMeVal(β-OH)][Hmp(2R,3S)][NMeV]))	> 64 mg/L	> 64 mg/L	> 64 mg/L	> 64 µg/mL	> 64 µg/mL	> 64 mg/L	> 64 µg/mL	> 64 mg/L	> 64 µg/mL	> 64 mg/L	> 64 µg/mL	> 64 mg/L	> 64 mg/L	> 64 mg/L	> 64 µg/mL	> 64 mg/L	> 64 µg/mL	> 64 mg/L	–	–
